The conditions of data set [1]: DTA; for Normal melting temperature: Crystal.
Data set [2] in a line: Molar enthalpy of transition or fusion. As to conditions: DSC.

± gives the expanded uncertainty stated by the source.

On to `CCCCn1cc[n+](C)c1.[Cl-]` [1-butyl-3-methylimidazolium chloride], for which the Triple point temperature in data set [1] (Crystal 2) turned out to be 303.15 ± 2 K. Besides, the Normal melting temperature in data set [1] came out at 74.00 ± 2 °C. Further, the “Molar enthalpy of transition or fusion” value in data set [2] (Crystal 2) was found to be 0.645 ± 0.143 kcal/mol; in data set [2] (Crystal), 4.3 ± 0.239 kcal/mol.
Consider `CCCCn1cc[n+](C)c1.[I-]` [1-butyl-3-methylimidazolium iodide], for which the Glass transition temperature in data set [1] (Glass) was -70.00 ± 5 °C.
Regarding `CCCCn1cc[n+](C)c1.[Br-]` [1-butyl-3-methylimidazolium bromide], in data set [1], the Normal melting temperature was determined as 78.00 ± 2 °C. Further, the “Molar enthalpy of transition or fusion” value in data set [2] (Crystal) was found to be 6.93 ± 0.239 kcal/mol.
